IC50 data for 14 compounds are collected here from patent publication US20210323981A1, “FREE AMINO COMPOUNDS FOR THE TREATMENT AND PROPHYLAXIS OF BACTERIAL INFECTION” (Hoffmann-La Roche Inc., priority 2018, published 2021).

Common to all, as to assay type: cell-based
One assay concerns A. baumannii (ATCC17978). The experiment in a line: 50% growth inhibitory concentration (IC50) determination assay, A. baumannii. To be noted: Acinetobacter baumannii, growth inhibition, Iso-Sensitest broth, OD 600 nm over 16 h, <0.098 = detection limit. As for the experimental part:
(§1) The in vitro antimicrobial activity of the compounds against S. aureus (ATCC29213), K. pneumoniae (ATCC10031), and A. baumannii (ATCC17978), was determined according to the following procedure: The assay used a 10-points Iso-Sensitest broth medium to measure quantitatively the in vitro activity of the compounds against S. aureus ATCC29213, K. pneumoniae ATCC 10031, and A. baumannii ATCC17978. Stock compounds in DMSO were serially two-fold diluted (range from 50 to 0.097 μM final concentration) in 384 wells microtiter plates and inoculated with 49 μL the bacterial suspension in Iso-Sensitest broth medium to have a final cell concentration of ˜5×10^5 CFU/mL in a final volume/well of 50 μL/well. Microtiter plates were incubated at 35±2° C. Bacterial cell growth was determined with the measurement of optical density at k=600 nm each 20 minutes over a time course of 16 h. Growth inhibition was calculated during the logarithmic growth of the bacterial cells with determination of the concentration inhibiting 50% (IC50) of the growth.

In assay [1] the test system is K. pneumoniae (ATCC10031). In words: 50% growth inhibitory concentration (IC50) determination assay, K. pneumoniae. To be noted: Klebsiella pneumoniae, growth inhibition, Iso-Sensitest broth, OD 600 nm over 16 h, <0.098 μM = detection limit. As for the experimental part: as §1
The test system of another assay is S. aureus (ATCC29213). In words: 50% growth inhibitory concentration (IC50) determination assay, S. aureus. The settings on record: Staphylococcus aureus, growth inhibition, Iso-Sensitest broth, OD 600 nm over 16 h, <0.098 μM = detection limit. As for the experimental part: as §1

A word on the IC50: it is the midpoint of a concentration-inhibition curve. High values mean lower potency, low ones higher potency.

Consider `CNc1cc(F)c(F)c2c1[nH]c1ncc(-c3cnc4c(c3)c(=O)c(C(=O)O)cn4C)c(N3CCC4(C[C@@H]4N)C3)c12` (mixture of isomers) [Example 2.01, Trans-6-[4-(2-amino-5-azaspiro[2.4]heptan-5-yl)-5,6-difluoro-8-(methylamino)-9H-pyrido[2,3-b]indol-3-yl]-1-methyl-4-oxo-1,8-naphthyridine-3-carboxylic acid], for which the concentration for half-maximal inhibition (IC50) in the assay on A. baumannii (ATCC17978) is 0.155 µM; in assay [1], below 0.098 µM; in the assay on S. aureus (ATCC29213) it was below 0.098 µM.

Consider `CNc1cc(F)c(F)c2c1[nH]c1ncc(-c3cnc4c(c3)c(=O)c(C(=O)O)cn4C)c(N3CCC(CN)C3)c12` (centres unmarked) [Example 1.11, 6-[4-[3-(Aminomethyl)pyrrolidin-1-yl]-5,6-difluoro-8-(methylamino)-9H-pyrido[2,3-b]indol-3-yl]-1-methyl-4-oxo-1,8-naphthyridine-3-carboxylic acid], for which the results for the half-maximal inhibitory concentration (IC50) (in the assay with A. baumannii (ATCC17978); in assay [1]; in the assay on S. aureus (ATCC29213)) were 3.62 µM, below 0.098 µM and 0.294 µM, respectively.

With `CCn1cc(C(=O)O)c(=O)c2cc(-c3cnc4[nH]c5c(NC)cc(F)c(F)c5c4c3N3CCC(CN)C3)cnc21` (centres unmarked) [Example 1.04, 6-(4-(3-(Aminomethyl)pyrrolidin-1-yl)-5,6-difluoro-8-(methylamino)-9H-pyrido[2,3-b]indol-3-yl)-1-ethyl-4-oxo-1,4-dihydro-1,8-naphthyridine-3-carboxylic acid], the IC50 in the assay with A. baumannii (ATCC17978) came out at 1.33 µM; in assay [1], 0.11 µM; in the assay on S. aureus (ATCC29213), 0.572 µM.

For the compound `CNc1cc(F)c(C#N)c2c1[nH]c1ncc(-c3cnc4c(c3)c(=O)c(C(=O)O)cn4C)c(N3CC[C@]4(C[C@@H]4N)C3)c12` [Example 5.03, 6-[4-[(2S,3S)-2-amino-5-azaspiro[2.4]heptan-5-yl]-5-cyano-6-fluoro-8-(methylamino)-9H-pyrido[2,3-b]indol-3-yl]-1-methyl-4-oxo-1,8-naphthyridine-3-carboxylic acid], the results for the concentration for half-maximal inhibition (IC50) (with A. baumannii (ATCC17978); in assay [1]; in the assay with S. aureus (ATCC29213)) were 0.497 µM, below 0.098 µM and below 0.098 µM, respectively.

`CNc1cc(F)c(Cl)c2c1[nH]c1ncc(-c3cnc4c(c3)c(=O)c(C(=O)O)cn4C)c(N3CC[C@]4(C[C@H]4N)C3)c12` [Example 4.04, 6-[4-[(2R,3S)-2-amino-5-azaspiro[2.4]heptan-5-yl]-5-chloro-6-fluoro-8-(methylamino)-9H-pyrido[2,3-b]indol-3-yl]-1-methyl-4-oxo-1,8-naphthyridine-3-carboxylic acid]: the figures for the concentration for half-maximal inhibition (IC50) (with A. baumannii (ATCC17978); in assay [1]; with S. aureus (ATCC29213)) were 0.0793 µM, below 0.098 µM and below 0.098 µM, respectively.

Regarding `CCn1cc(C(=O)O)c(=O)c2cc(-c3cnc4[nH]c5c(NC)cc(F)c(F)c5c4c3N3CCC(N)C3)cnc21` (centres unmarked) [Example 1.03, 6-[4-(3-Aminopyrrolidin-1-yl)-5,6-difluoro-8-(methylamino)-9H-pyrido[2,3-b]indol-3-yl]-1-ethyl-4-oxo-1,8-naphthyridine-3-carboxylic acid], the half-maximal inhibitory concentration (IC50) is 1.49 µM with A. baumannii (ATCC17978), below 0.098 µM in assay [1] and 0.944 µM with S. aureus (ATCC29213).

For `CNc1cc(F)c(F)c2c1[nH]c1ncc(-c3cnc4c(c3)c(=O)c(C(=O)O)cn4C)c(N3CCCC3CN)c12` (centres unmarked) [Example 1.09, 6-[4-[2-(Aminomethyl)pyrrolidin-1-yl]-5,6-difluoro-8-(methylamino)-9H-pyrido[2,3-b]indol-3-yl]-1-methyl-4-oxo-1,8-naphthyridine-3-carboxylic acid], the IC50 in the assay on A. baumannii (ATCC17978) stood at 3.72 µM; in assay [1], 0.25 µM; in the assay with S. aureus (ATCC29213) it was 0.513 µM.

With `CNc1cc(F)c(C#N)c2c1[nH]c1ncc(-c3cnc4c(c3)c(=O)c(C(=O)O)cn4C)c(N3C[C@H]4CC[C@@H](N)[C@H]4C3)c12` (relative stereo) [Example 1.13, 6-[5-Cyano-6-fluoro-8-(methylamino)-4-[rel-(3aR,4R,6aS)-4-amino-3,3a,4,5,6,6a-hexahydro-1H-cyclopenta[c]pyrrol-2-yl]-9H-pyrido[2,3-b]indol-3-yl]-1-methyl-4-oxo-1,8-naphthyridine-3-carboxylic acid], the half-inhibitory concentration (IC50) came out at 2.79 µM with A. baumannii (ATCC17978), 0.128 µM in assay [1] and 0.151 µM with S. aureus (ATCC29213).

Regarding `CNc1cc(F)c(F)c2c1[nH]c1ncc(-c3cnc4c(c3)c(=O)c(C(=O)O)cn4C)c(N3CC4(CCC4N)C3)c12` (centres unmarked) [Example 1.02, 6-[4-(7-Amino-2-azaspiro[3.3]heptan-2-yl)-5,6-difluoro-8-(methylamino)-9H-pyrido[2,3-b]indol-3-yl]-1-methyl-4-oxo-1,8-naphthyridine-3-carboxylic acid], the IC50 is 2.86 µM with A. baumannii (ATCC17978), below 0.098 µM in assay [1] and 3.89 µM with S. aureus (ATCC29213).

Regarding `CNc1cc(F)c(F)c2c1[nH]c1ncc(-c3cnc4c(c3)c(=O)c(C(=O)O)cn4C)c(N3CC[C@H]4CN(CCCN)C[C@H]43)c12` (relative stereo) [Example 1.07, cis-6-[5,6-Difluoro-8-(methylamino)-4-[5-(3-aminopropyl)-2,3,3a,4,6,6a-hexahydropyrrolo[2,3-c]pyrrol-1-yl]-9H-pyrido[2,3-b]indol-3-yl]-1-methyl-4-oxo-1,8-naphthyridine-3-carboxylic acid], the figures for the IC50 (with A. baumannii (ATCC17978); in assay [1]; with S. aureus (ATCC29213)) were 4.79 µM, 0.429 µM and 1.67 µM, respectively.

In the assay on S. aureus (ATCC29213), `CNc1cc(F)c(F)c2c1[nH]c1ncc(-c3cnc4c(c3)c(=O)c(C(=O)O)cn4C)c(N3CCC(N)(C(F)(F)F)C3)c12` (centres unmarked) [Example 1.05, 6-(4-(3-Amino-3-(trifluoromethyl)pyrrolidin-1-yl)-5,6-difluoro-8-(methylamino)-9H-pyrido[2,3-b]indol-3-yl)-1-methyl-4-oxo-1,4-dihydro-1,8-naphthyridine-3-carboxylic acid] had an IC50 below 0.098 µM.

For the compound `CNc1cc(F)c(F)c2c1[nH]c1ncc(-c3cnc4c(c3)c(=O)c(C(=O)O)cn4C)c(N3CCC[C@@]4(C[C@H]4N)C3)c12` [Example 6.01, 6-[4-[(2R,3R)-2-Amino-5-azaspiro[2.5]octan-5-yl]-5,6-difluoro-8-(methylamino)-9H-pyrido[2,3-b]indol-3-yl]-1-methyl-4-oxo-1,8-naphthyridine-3-carboxylic acid], the 50% inhibitory concentration (IC50) in the assay with S. aureus (ATCC29213) is below 0.098 µM.

Compound `CNc1cc(F)c(F)c2c1[nH]c1ncc(-c3cnc4c(c3)c(=O)c(C(=O)O)cn4C)c(N3CCC[C@]4(C[C@@H]4N)C3)c12` [Example 6.02, 6-[4-[(2S,3S)-2-amino-5-azaspiro[2.5]octan-5-yl]-5,6-difluoro-8-(methylamino)-9H-pyrido[2,3-b]indol-3-yl]-1-methyl-4-oxo-1,8-naphthyridine-3-carboxylic acid] came in with a half-maximal inhibitory concentration (IC50) with S. aureus (ATCC29213) below 0.098 µM.

Consider `CNc1cc(F)c(F)c2c1[nH]c1ncc(-c3cnc4c(c3)c(=O)c(C(=O)O)cn4C)c(N3CCC(F)(CN)C3)c12` (centres unmarked) [Example 1.16, 6-[4-[3-(Aminomethyl)-3-fluoro-pyrrolidin-1-yl]-5,6-difluoro-8-(methylamino)-9H-pyrido[2,3-b]indol-3-yl]-1-methyl-4-oxo-1,8-naphthyridine-3-carboxylic acid], for which the IC50 (in assay [1]; with S. aureus (ATCC29213)) was below 0.098 µM each time.
